The source made the active and inactive calls.
Legend:
[1] = molecular target: Kappa-type opioid receptor (Homo sapiens, UniProt P41145); test: SAR analysis of small molecule agonists of the kappa opioid receptor via a luminescent beta-arrestin assay - Set 3. [Related pubchem assays (depositor defined):AID1777, AID1785, AID1786, AID1966, AID2133, AID2136, AID2284, AID2500]; format: functional
Exodeoxyribonuclease V = molecular target: T1, Exodeoxyribonuclease V (Escherichia coli (strain K12), UniProt P04993+P07648+P08394); test: RecBCD inhibition via phage-restricted bacterial growth – absorbance, V66 E. coli, mutant T4 phage, counter-screen for AddAB inhibitor project, dose response (AID 492957); format: functional, cell-based, Escherichia coli str. K-12 substr. MG1655
T1 sequence (P04993 whole entry): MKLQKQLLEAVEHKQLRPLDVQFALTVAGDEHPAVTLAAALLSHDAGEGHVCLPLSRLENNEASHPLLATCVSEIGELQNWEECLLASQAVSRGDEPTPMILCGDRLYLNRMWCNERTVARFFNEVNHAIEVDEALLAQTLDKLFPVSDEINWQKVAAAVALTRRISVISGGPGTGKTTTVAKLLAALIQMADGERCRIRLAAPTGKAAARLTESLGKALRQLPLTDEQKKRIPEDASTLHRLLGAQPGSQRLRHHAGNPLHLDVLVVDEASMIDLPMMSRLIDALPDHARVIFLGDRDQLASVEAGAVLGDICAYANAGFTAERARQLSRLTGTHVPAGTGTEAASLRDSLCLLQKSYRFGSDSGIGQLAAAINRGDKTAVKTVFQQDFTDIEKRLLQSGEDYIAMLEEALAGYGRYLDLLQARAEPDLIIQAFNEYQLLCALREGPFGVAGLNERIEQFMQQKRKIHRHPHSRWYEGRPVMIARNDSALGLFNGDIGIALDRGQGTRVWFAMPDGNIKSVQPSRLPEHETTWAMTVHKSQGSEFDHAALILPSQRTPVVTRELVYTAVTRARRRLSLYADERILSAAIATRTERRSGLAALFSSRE
T1 sequence (P07648 whole entry): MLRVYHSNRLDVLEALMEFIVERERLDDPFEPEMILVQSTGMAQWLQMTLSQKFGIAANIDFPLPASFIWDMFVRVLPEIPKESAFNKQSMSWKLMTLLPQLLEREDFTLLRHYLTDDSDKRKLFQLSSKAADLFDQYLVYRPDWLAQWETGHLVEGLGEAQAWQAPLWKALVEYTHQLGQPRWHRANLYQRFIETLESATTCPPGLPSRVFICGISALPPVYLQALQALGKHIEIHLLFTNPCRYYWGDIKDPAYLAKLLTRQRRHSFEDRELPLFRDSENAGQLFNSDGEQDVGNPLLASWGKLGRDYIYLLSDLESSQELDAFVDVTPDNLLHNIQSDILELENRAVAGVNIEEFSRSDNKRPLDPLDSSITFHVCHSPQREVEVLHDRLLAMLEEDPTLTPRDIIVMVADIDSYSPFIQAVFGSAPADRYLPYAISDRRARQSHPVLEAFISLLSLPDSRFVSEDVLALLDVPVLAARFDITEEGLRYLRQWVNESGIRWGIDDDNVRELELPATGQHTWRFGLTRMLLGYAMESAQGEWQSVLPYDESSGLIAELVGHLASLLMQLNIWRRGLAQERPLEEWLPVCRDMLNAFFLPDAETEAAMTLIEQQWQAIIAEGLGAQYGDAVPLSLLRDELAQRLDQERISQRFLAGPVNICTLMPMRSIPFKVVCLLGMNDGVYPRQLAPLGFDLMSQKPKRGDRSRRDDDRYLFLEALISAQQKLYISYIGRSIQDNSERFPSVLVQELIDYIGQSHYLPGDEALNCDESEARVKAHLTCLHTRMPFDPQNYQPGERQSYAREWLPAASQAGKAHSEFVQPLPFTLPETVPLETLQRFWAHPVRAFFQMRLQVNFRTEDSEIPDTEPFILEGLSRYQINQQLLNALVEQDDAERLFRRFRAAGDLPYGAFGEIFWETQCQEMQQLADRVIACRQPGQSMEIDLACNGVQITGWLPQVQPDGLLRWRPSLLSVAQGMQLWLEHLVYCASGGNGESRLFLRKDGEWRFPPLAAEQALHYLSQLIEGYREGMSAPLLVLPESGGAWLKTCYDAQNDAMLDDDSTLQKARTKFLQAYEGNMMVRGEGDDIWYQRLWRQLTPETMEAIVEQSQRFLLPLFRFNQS
T1 sequence (P08394 whole entry): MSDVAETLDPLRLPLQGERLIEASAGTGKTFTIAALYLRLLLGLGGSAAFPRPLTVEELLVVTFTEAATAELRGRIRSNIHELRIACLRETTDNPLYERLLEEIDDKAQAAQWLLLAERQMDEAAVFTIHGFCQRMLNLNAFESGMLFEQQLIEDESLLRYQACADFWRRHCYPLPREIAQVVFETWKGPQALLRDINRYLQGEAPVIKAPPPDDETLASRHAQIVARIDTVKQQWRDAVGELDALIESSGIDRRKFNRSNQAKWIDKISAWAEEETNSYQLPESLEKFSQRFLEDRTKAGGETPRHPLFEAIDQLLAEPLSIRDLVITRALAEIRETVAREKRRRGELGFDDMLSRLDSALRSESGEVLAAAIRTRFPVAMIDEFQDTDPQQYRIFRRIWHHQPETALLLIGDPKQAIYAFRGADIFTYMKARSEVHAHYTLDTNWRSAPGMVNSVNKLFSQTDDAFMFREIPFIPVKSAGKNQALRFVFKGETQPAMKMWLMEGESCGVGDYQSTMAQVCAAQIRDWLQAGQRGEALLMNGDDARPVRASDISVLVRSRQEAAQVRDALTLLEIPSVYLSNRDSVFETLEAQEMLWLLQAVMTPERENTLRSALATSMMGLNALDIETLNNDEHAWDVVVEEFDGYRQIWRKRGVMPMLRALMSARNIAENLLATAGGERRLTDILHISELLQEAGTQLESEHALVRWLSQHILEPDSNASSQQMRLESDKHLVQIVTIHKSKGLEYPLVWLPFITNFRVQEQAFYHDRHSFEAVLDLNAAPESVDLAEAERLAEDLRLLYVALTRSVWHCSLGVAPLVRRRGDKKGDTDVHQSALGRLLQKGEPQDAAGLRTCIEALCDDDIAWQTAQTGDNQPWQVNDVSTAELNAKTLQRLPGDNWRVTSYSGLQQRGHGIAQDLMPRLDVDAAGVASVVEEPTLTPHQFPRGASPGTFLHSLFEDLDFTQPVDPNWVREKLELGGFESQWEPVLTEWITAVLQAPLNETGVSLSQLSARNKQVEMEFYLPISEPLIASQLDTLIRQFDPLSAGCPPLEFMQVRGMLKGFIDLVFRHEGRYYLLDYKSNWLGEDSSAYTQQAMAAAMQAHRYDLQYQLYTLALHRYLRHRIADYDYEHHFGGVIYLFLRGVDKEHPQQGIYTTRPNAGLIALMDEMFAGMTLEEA

[2] = Counterscreen for AddAB inhibitors: absorbance-based bacterial cell-based high throughput dose response assay for inhibitors of bacterial viability. [Related pubchem assays (depositor defined):AID435030, AID449728, AID449731, AID488942, AID488955, AID488956]; format: functional
[3] = A Cell Based Secondary Assay To Explore Cytotoxicity of Compounds that Sensitize Mycobacterium Tuberculosis to Beta-Lactam Antibiotics.; format: functional
[4] = molecular target: T2, High affinity choline transporter 1 (Homo sapiens, UniProt Q9GZV3); test: human choline transporter blockers, potency – cell-based, 5-point CRC, membrane potential dye, dose response (AID 504840); format: functional
T2 sequence (Q9GZV3 whole entry): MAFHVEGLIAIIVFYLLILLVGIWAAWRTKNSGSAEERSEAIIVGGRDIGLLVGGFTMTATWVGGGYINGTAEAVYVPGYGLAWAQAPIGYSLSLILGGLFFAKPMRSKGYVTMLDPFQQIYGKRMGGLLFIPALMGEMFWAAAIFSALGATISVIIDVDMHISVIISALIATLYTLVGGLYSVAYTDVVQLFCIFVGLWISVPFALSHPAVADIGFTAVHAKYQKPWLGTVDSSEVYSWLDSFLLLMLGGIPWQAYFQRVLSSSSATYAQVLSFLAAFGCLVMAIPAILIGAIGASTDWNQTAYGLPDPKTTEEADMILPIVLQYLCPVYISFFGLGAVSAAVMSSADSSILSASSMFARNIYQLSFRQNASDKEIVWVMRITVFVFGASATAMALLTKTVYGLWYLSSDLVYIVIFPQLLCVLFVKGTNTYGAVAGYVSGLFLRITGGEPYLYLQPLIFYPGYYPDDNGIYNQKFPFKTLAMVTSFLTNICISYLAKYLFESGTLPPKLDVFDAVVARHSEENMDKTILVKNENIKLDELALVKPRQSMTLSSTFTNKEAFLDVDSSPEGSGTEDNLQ

[5] = molecular target: T3, Dual specificity protein phosphatase 3 (Homo sapiens, UniProt P51452); test: VHR1 phosphatase inhibitors, primary screen, biochemical, absorbance, uHTS (AID 1654)
T3 sequence (P51452 whole entry): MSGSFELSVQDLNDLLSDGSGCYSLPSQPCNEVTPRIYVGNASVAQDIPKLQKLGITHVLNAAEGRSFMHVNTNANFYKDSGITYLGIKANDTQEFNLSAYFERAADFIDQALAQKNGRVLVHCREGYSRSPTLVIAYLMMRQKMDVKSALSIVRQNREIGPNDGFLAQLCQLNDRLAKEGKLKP

[6] = molecular target: T3, Dual specificity protein phosphatase 3; test: VHR1 phosphatase inhibitors, biochemical (AID 1878)
[7] = molecular target: T4, Dual specificity protein phosphatase 6 (Rattus norvegicus, UniProt Q64346); test: inhibition of rat DUSP6 enzyme activity – biochemical, in vitro, primary screen (AID 425)
T4 sequence (Q64346 whole entry): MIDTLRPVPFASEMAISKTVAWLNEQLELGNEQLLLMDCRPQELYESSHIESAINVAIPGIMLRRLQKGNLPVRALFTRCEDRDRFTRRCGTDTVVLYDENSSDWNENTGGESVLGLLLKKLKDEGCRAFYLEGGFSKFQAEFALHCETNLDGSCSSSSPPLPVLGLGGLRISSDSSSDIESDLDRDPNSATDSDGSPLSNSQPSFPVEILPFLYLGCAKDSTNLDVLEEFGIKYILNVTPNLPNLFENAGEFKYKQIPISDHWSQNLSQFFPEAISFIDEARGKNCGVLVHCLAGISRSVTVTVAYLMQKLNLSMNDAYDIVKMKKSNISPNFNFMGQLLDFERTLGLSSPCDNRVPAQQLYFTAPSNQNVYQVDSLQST

Cytochrome P450 3A4 = Cytochrome P450 3A4 (Homo sapiens, UniProt P08684);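 note: CYP3A4 tested as one member of a cytochrome P450 panel screen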
Cytochrome P450 3A4, sequence (P08684 whole entry): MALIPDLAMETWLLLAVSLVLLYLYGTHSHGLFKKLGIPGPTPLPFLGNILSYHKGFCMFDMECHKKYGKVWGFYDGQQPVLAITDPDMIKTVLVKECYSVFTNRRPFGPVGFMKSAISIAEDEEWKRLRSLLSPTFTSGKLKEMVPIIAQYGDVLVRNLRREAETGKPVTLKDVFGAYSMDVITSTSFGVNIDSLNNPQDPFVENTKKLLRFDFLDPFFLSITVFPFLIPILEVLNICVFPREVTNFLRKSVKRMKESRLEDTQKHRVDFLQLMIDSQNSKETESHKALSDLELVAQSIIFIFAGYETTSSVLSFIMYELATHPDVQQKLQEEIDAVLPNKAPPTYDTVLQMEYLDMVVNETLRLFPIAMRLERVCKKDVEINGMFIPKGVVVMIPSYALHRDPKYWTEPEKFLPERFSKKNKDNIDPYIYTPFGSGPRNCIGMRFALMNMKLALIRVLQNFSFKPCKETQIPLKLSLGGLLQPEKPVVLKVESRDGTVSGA

Cytochrome P450 2C9 = Cytochrome P450 2C9 (Homo sapiens, UniProt P11712)
Cytochrome P450 2C9, sequence (P11712 whole entry): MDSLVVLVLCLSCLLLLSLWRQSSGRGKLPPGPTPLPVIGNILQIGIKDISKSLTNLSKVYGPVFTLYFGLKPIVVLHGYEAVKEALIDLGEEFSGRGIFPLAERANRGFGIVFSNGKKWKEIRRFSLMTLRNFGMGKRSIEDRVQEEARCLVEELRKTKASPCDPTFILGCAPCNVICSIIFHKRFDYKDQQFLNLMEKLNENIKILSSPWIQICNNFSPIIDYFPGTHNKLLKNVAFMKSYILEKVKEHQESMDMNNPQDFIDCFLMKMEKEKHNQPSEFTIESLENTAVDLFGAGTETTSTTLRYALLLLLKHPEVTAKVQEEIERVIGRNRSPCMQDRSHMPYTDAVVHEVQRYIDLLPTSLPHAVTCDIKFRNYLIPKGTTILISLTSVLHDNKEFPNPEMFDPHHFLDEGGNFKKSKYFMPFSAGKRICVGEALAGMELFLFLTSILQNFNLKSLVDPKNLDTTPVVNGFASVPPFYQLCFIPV

[8] = molecular target: Glucose-6-phosphate 1-dehydrogenase (Homo sapiens, UniProt P11413); test: inhibition of Homo sapiens G6PD, dose series – biochemical, fluorescence, selectivity assay for P. falciparum G6PD inhibitor project, dose response (AID 504792); format: functional
Glucose-6-phosphate 1-dehydrogenase, sequence (P11413 whole entry): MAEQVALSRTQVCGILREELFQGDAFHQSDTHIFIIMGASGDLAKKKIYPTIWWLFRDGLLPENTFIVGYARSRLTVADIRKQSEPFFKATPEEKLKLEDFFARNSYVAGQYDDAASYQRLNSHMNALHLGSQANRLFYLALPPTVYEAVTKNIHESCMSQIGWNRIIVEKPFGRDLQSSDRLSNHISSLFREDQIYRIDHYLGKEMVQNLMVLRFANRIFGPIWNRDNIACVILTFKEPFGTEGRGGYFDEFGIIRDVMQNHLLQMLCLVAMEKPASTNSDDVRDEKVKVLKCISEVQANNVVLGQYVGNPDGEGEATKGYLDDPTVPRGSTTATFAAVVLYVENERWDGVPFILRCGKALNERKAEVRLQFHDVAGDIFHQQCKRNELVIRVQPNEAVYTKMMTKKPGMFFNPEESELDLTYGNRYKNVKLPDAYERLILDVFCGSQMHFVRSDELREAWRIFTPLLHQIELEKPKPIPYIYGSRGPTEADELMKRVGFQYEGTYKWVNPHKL

Keap1/Nrf2 = Keap1/Nrf2 (Homo sapiens, UniProt Q14145); test: disruptors of Keap1 binding to Nrf2 peptide – biochemical, fluorescence polarization, cherry-picked samples, dose response (AID 588683)
Keap1/Nrf2, sequence (Q16236 whole entry): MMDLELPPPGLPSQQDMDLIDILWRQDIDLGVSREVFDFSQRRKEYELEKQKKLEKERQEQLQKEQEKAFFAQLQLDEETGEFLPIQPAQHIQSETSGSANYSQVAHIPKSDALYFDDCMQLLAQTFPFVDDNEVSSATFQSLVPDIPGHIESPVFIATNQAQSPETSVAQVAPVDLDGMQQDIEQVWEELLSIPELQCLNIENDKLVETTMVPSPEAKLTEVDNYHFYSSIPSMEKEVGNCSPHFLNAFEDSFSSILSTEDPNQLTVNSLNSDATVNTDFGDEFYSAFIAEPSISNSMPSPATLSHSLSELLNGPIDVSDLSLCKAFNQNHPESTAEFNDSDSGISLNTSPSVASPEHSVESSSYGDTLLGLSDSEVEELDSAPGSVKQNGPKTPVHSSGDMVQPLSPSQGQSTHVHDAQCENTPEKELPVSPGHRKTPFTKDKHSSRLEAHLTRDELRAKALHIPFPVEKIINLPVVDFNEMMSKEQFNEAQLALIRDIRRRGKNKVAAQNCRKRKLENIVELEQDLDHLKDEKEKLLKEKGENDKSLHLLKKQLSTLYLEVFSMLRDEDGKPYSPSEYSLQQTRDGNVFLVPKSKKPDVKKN
Keap1/Nrf2, sequence (Q14145 whole entry): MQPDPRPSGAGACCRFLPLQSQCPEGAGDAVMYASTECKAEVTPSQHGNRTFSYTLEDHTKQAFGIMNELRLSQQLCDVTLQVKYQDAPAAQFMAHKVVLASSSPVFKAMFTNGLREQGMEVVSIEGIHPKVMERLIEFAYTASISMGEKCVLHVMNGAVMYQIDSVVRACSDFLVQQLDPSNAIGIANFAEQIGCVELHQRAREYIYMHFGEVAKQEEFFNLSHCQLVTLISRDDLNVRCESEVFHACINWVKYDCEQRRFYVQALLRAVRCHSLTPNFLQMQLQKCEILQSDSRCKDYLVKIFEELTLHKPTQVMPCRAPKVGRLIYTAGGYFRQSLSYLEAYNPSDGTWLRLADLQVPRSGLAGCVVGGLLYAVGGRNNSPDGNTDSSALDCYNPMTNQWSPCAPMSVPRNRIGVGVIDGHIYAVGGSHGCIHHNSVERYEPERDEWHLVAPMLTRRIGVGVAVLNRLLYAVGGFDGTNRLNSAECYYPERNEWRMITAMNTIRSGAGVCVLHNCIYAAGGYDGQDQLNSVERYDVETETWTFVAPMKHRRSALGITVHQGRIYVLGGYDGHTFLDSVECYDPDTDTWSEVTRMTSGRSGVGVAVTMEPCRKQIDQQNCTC

[9] = molecular target: T3, Dual specificity protein phosphatase 3; test: SAR VHR1 absorbance Assay for In Vitro dose response studies. [Related pubchem assays (depositor defined):AID1654, AID1661, AID1878, AID1992, AID2004]
[10] = molecular target: T3, Dual specificity protein phosphatase 3; test: SAR VHR1 Fluorescent Assay for In Vitro dose response studies. [Related pubchem assays (depositor defined):AID1654, AID1661, AID1878, AID1992, AID2004, AID2070, AID2085]; format: functional
[11] = molecular target: T5, Tyrosine-protein phosphatase non-receptor type 7 (Homo sapiens, UniProt P35236); test: redox-active compounds inhibiting HePTP phosphatase – biochemical, fluorescence, mechanism study (AID 2068); format: functional
T5 sequence (P35236 whole entry): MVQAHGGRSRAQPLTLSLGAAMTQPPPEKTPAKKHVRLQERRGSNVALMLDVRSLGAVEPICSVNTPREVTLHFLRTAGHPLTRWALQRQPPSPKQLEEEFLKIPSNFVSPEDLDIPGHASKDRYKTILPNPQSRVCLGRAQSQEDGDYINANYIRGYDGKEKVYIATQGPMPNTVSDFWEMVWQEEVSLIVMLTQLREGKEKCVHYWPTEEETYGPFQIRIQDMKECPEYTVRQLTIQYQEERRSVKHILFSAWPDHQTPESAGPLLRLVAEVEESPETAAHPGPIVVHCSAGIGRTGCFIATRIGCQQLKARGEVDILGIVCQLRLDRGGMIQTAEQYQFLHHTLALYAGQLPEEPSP

[12] = molecular target: T4, Dual specificity protein phosphatase 6; format: functional

Kappa-type opioid receptor, sequence (P41145 whole entry): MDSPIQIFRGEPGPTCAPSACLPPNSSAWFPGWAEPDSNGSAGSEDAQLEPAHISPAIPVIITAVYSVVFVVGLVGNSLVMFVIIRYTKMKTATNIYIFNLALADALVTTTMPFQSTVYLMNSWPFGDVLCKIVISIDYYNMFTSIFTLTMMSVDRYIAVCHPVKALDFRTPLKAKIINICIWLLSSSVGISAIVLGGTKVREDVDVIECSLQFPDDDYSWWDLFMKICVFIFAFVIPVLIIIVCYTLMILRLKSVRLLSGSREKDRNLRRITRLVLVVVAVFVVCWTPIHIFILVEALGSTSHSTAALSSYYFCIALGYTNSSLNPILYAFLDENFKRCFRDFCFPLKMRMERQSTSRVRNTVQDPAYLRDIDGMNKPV

## Clc1ccc(CSc2nnc(-c3ccccn3)n2Cc2ccccc2)cc1Cl
[1]
  EC50: 1.24 µM (active)

## Cc1cc2c(c(=O)o1)C(c1ccc([N+](=O)[O-])o1)C(C#N)=C(N)O2 (centres undefined)
Exodeoxyribonuclease V
  IC50: > 119 µM (inactive)
[2]
  IC50: 102 µM (inactive)

## CN1CCN(S(=O)(=O)c2ccc(NC(=O)c3ccc(Br)s3)cc2)CC1
[3]
  CC50: > 40 µM (active)
[4]
  IC50: 16.6 µM (active)

## Oc1c(Br)cc(/C=N/n2c(S)nnc2-c2ccccc2)c(Br)c1O
[5]
  IC50: < 1.23 µM (inactive)
[6]
  IC50: 2.39 µM (active)
[7]
  IC50: 90.3 µM (active)

## COc1ccc(C(=O)NC2CCCCC2)cc1OC1CCN(C(C)C)CC1
[4]
  IC50: 17.4 µM (active)

## COc1cccc(Cn2c(=O)c(-c3ccc(Cl)cc3)nc3cnc(N4CCN(C)CC4)nc32)c1
Cytochrome P450 3A4
  AC50: inconclusive

## CC(=O)N1CCC2(CC1)CCN(C(c1ccccc1)c1ccccc1)CC2
Cytochrome P450 2C9
  AC50: 39.8 µM (inconclusive)
Cytochrome P450 3A4
  AC50: inconclusive

## Cc1cccc(C)c1OCc1cc(C(=O)N(C)Cc2nc3ccccc3[nH]2)no1
Exodeoxyribonuclease V
  IC50: > 119 µM (inactive)
[2]
  IC50: > 119 µM (inactive)

## Clc1ccc(CSc2nnc(-c3ccccn3)n2Cc2cccnc2)cc1Cl
[1]
  EC50: 0.756 µM (active)

## COc1c(O)c(O)c2oc(-c3ccccc3)cc(=O)c2c1OC
Exodeoxyribonuclease V
  IC50: > 119 µM (inactive)
[8]
  IC50: > 80 µM (inactive)
[2]
  IC50: > 119 µM (inactive)

## Cc1cc(C)c(C)c(S(=O)(=O)Nc2cccc(S(=O)(=O)Nc3ccccc3C(=O)O)c2)c1C
Keap1/Nrf2
  AC50: > 52 µM (inactive)

## Cn1cccc1C(=O)N1CCC2(CC1)CN(c1ccccn1)C2
Cytochrome P450 3A4
  AC50: inconclusive

## CC(C)NC(=S)c1cn(CCOc2ccccc2)c2ccccc12
[9]
  IC50: > 100 µM (inactive)
[10]
  IC50: > 100 µM (inactive)
[11]
  IC50: > 100 µM (inactive)
[12]
  IC50: > 100 µM (inactive)
